In patent US20250325517A1, “ORAL DOSAGE FORMS OF ELRAGLUSIB” (Actuate Therapeutics, Inc., priority 2022, published 2025):
In brackets after ≈: the same amount, converted by molar mass. Where two headings read alike, the source gives them in different places.

Experiment: Quantitative solubility by HPLC in organic solvents and surfactants
Type: physicochemical
Conditions: for solubility: thermodynamic from solid, read-out: Solubility (n = 2) by HPLC
From the text: The HPLC method 1 was used for solubility, stability monitoring at 438 nm, and drug loading measurements of the ASD is summarized in Table 2A-31 and the HPLC method 2 was used for stability monitoring at 210 nm, which is summarized in Table 2A-32.

- solubility (DCM, no surfactant, organic solvent or mixture): 15.1 mg/mL (≈ 37.3 mM)
- solubility (H2O with Kolliphor EL 10% w/v, aqueous with cosolvent or surfactant or cyclodextrin, H2O, Kolliphor EL 10% w/v): 0.12 mg/mL (≈ 0.297 mM)
- solubility (H2O with Labrasol 10% w/v, aqueous with cosolvent or surfactant or cyclodextrin, H2O, Labrasol 10% w/v): 0.16 mg/mL (≈ 0.396 mM)
- solubility (H2O with Tween 80 10% w/v, aqueous with cosolvent or surfactant or cyclodextrin, H2O, Tween 80 10% w/v): 0.24 mg/mL (≈ 0.594 mM)
- solubility (THF (with stabilizer BHT), no surfactant, organic solvent or mixture): 25.3 mg/mL (≈ 62.5 mM)
- solubility (THF with Kolliphor HS 15 10% w/v, organic solvent or mixture, THF, Kolliphor HS 15 10% w/v): 47.6 mg/mL (≈ 118 mM)
- solubility (THF with Labrasol 10% w/v, organic solvent or mixture, THF, Labrasol 10% w/v): 52.3 mg/mL (≈ 129 mM)
- solubility (THF with Poloxamer P188 10% w/v, organic solvent or mixture, THF, Poloxamer P188 10% w/v): 49.8 mg/mL (≈ 123 mM)
- solubility (THF with TPGS 10% w/v, organic solvent or mixture, THF, TPGS 10% w/v): 46.8 mg/mL (≈ 116 mM)
- solubility (THF with Tween 80 10% w/v, organic solvent or mixture, THF, Tween 80 10% w/v): 49.8 mg/mL (≈ 123 mM)
- Solubility (n = 2) by HPLC (THF, Kolliphor EL 10% w/v): 48.0 mg/mL (≈ 119 mM)
- Solubility (n = 2) by HPLC (THF, no surfactant): 52.7 mg/mL (≈ 130 mM)
- solubility (THF:H2O (90:10) with Labrasol 10% w/v, organic solvent or mixture, THF:H2O (90:10), Labrasol 10% w/v): 54.8 mg/mL (≈ 136 mM)
- Solubility (n = 2) by HPLC (THF:H2O (90:10), no surfactant): 61.2 mg/mL (≈ 151 mM)
- solubility (acetone, no surfactant, organic solvent or mixture): 13 mg/mL (≈ 32.2 mM)
- solubility (organic solvent or mixture, DCM:Acetone (1:1), no surfactant): 19.8 mg/mL (≈ 49 mM)
- solubility (organic solvent or mixture, DCM:Acetone (5:1), no surfactant): 24.5 mg/mL (≈ 60.5 mM)
- solubility (organic solvent or mixture, DCM:EtOH (1:1), no surfactant): 16.4 mg/mL (≈ 40.6 mM)
- solubility (organic solvent or mixture, DCM:MeOH (8:2), no surfactant): 11.8 mg/mL (≈ 29.1 mM)
SMILES: Cn1cc(C2=C(c3coc4ccc(F)cc34)C(=O)NC2=O)c2cc3c(cc21)OCO3 [elraglusib, 3-(5-fluorobenzofuran-3-yl)-4-(5-methyl-5H-[1,3]dioxolo[4,5-f]indol-7-yl)-1H-pyrrole-2,5-dione]
